{"source": "patent EP0746567B1", "about": "“NOVEL OPIOID PEPTIDES FOR THE TREATMENT OF PAIN AND USE THEREOF” (AstraZeneca AB, priority 1994, dated 2002)", "tested_on": "hot plate response", "test": "Hot plate test (central analgesia)", "assay_type": "in vivo", "details": "mouse hot plate test, even at doses of 100mg/kg", "excerpt": "It was thought that non-polar peptides pass more easily into the central nervous system than polar peptides by traversing the blood-brain barrier. […] This test is standard and known to persons skilled in the art. The test detects chemicals that exert a centrally mediated analgesic response.\nThe term \"ED50\" as shown in table 1 for the PBQ writhing assays is defined as the dose of drug which induces a 50% reduction in the number of writhes observed compared to the control.\nPBQ (phenylbenzoquinone) induced writhing in mice is an assessment of both central and peripheral analgesia. For experimental protocol see Sigmund et al., Proc. Soc. Exp. Biol. Med., 95, p. 729 (1957). Central analgesia was determined by the inhibition of a hot plate response in mice. For experimental protocol see G. Woolfe and A. Macdonald, J. Pharmacol. Exp. Ther., 80, p.300 (1944). Assays measuring opioid receptor binding affinities for µ and δ receptors as well as GPI and MVD assays were determined through experimental protocol set out in Schiller et al., Biophys. Res. Commun., 85, p.1322 (1975). […]\nThe mice were individually evaluated for reaction time on the hot plate. […]\nFor each time reading, the average reaction time of the control group was multiplied by 1.5. […] The number of analgesic mice in a group determined the analgesic percentage of the compound for this reading.", "note": "Non-standard residues stand in square brackets, D forms with d. Residues, ends and D or L forms follow the SMILES beside them."}
{"smiles": "C[C@@H](NC(=O)[C@@H](N)Cc1ccc(O)cc1)C(=O)N[C@@H](Cc1ccccc1)C(=O)N[C@@H](Cc1ccccc1)C(N)=O", "note": "[TAPP, H-Tyr-D-Ala-Phe-Phe-NH2] (H-Y[dA]FF-NH2)", "values": [{"measurement": "analgesic effect", "result": "lack of analgesic effect"}]}
